Reference: EP2181589A1, “Neurotoxic sterol glycosides” (Shaw, Christopher Ariel, priority 2008, dated 2010)
Marks after values point to notes of the source that are not given here.

How the values were obtained:
Assay type in all cases: in vivo, CD-1 mice
[1] = tested on: Motor Neurons per lumbar cord section; test: Motor neuron counts, cresyl violet (Nissl) histology
Method: (§1) The synthetic SG was mixed with finely ground Purina Chow mouse pellets (Mouse Diet™, Purina) to create the experimental pellets with a SG content of 1000 µg per pellet. Dry materials were blended with a sterile silicon spatula. For every 5 g of standard feed, 2.5 mL of doubly-distilled water (dd)H2O was added and the dough was kneaded and round up into pellets. A single sterol glucoside containing pellet was placed in the feeding tray each morning before the addition of regular mouse chow (ad libitum). All experimental pellets were entirely consumed by the mice each day. Control mice were fed standard mouse chow pellets of identical weight with no additives. SG feeding was conducted daily for 15 weeks and mice were behaviorally monitored until sacrifice at 35 weeks (time point 1) or 52 weeks (time point 2).
Mice were sacrificed for histological analysis at 35 weeks (35.9-48.6 g) and 52 weeks (41.2-51.4 g) of age. Age-matched control mice from each time point were included for comparison. The mice were deeply anaesthetized in a chamber with 4% isoflurane and perfused intracardially with filtered PBS (pH 7.4) until the effluent was cleared of blood (2 minutes), followed by perfusion with cold (4°C) 4% paraformaldehyde (PFA) in 0.1 M phosphate buffer (pH 7.4) for 5 minutes (30 mL). The PBS and the PFA were delivered through separate sterile platinum-cured silicon tubing (Cole-Parmer Canada Inc., Montreal, Canada) and peristaltic pumps (MasterFlex peristaltic pump, Cole-Parmer Canada Inc., Montreal, Canada). The brains and spinal cords were dissected out and fixed overnight at 4°C and equilibrated in increasing concentrations of sucrose in phosphate-buffered saline, pH 7.4 (10, 20, and 25%) over a 3-day period. Complete equilibration of the tissues was taken as the moment the tissues sank to the bottom of the scintillation tubes filled with 25% sucrose. After equilibration, the spinal cord and brain specimens were set in molds (Tissue-tek Cryomold, Sakura Finetek, USA, Torrance, CA) with an optimum cutting temperature (OCT) gel-sucrose mixture frozen by immersion in an isopentane (BDH Laboratory Supplies, UK) bath on dry ice and stored at -80°C until processing.
Cryosectioning of tissue: Frozen, coronal sections (spinal cord: 20 µm, brain: 30 µm) were cut with a Hacker-Bright cryostat (Hacker Instruments and Industries Inc., Winnsboro, SC) and mounted on charged glass slides (Superfrost Plus; Fisher Scientific, Pittsburgh, PA) so that adjacent CNS sections on each slide represented regions 100 µm and 150 µm apart for spinal cord and brain, respectively ((Tabata, Wilson et al. 2008)). The slides were stored at -80°C until histological processing. To ensure CNS sections were matched between animals, anatomical landmarks were verified using a mouse brain atlas (Paxinos and Franklin 2001).
Histology and quantification of motor neurons: Spinal cord and brain sections from each animal were stained for Nissl body substance. At room temperature (RT), sections were rinsed in a graded ethanol series (95%: 15 min; 70%: 1 min; 50%: 1 min) to rehydrate and remove lipids and fixation chemicals from the tissue. The tissue were then rinsed for 2 min in two exchanges of distilled water, stained with twice-filtered cresyl violet stain (1.25 g cresyl violet acetate, 0.75 mL glacial acetic acid to 250 mL distilled water), rinsed in distilled water (1 minute), and then dehydrated (50% ethanol: 1 minute; 1% glacial acetic acid-70% ethanol: 2 minutes; 95% ethanol: 2 minutes; 95% ethanol: 3 dips; 100% ethanol: 1 minute) and cleared in xylene. The slides were then cover-slipped in Entellen mountant (Merck, Darmstadt, Germany). The tissue mounted slides were selected with a randomized start and sampled starting from the lumbar 2 region to the 6th. […]

[2] = tested on: Ionized calcium-binding adaptor molecule-1; test: IBA-1 immunofluorescence (microglia proliferation); details: SG-fed group over time, 35 to 52 wk
Method: as §1
(§2) Tissue-mounted slides were processed for fluorescence microscopy as follows: Sections were rinsed in coplin jars for 45 minutes at room temperature (RT) in three changes of PBS. Sections were then incubated at RT for 30 minutes in a blocking permeabilization solution made of 5% normal goat serum (NGS), 5% normal rabbit serum (NRS) or 5% BlokHen II (Aves Labs, Inc., Tigard, OR), 0.05% Triton X-100 and PBS. Subsequently, the blocking solution was tipped off and the slides were rinsed in PBS for 2 minutes. […]

[3] = tested on: Cholinergic motor neurons in the spinal cord; test: Choline acetyl transferase immunofluorescence; details: SG-fed vs control; for Cholinergic neurons: ventral horn of lumbar spinal cord
Method: as §1, §2

[4] = SG-fed vs control, time-point 1, 35 wk
[5] = SG-fed vs control, time-point 2, 52 wk
[6] = SG-group over time, 35 to 52 wk

## CCC(C=CC(C)C1CCC2C3CC=C4CC(OC5OC(CO)C(O)C(O)C5O)CCC4(C)C3CCC12C)C(C)C (stereo not shown) [SG]
[1]; [4]
  Chromatolytic α-MN: Chromatolytic α-MN (ns)
  Healthy α-MN: Healthy α-MN (ns)
  Pyknotic α-MN: Pyknotic α-MN (ns)
  Total γ-MN: Total γ-MN (ns)
[1]; [5]
  Chromatolytic α-MN: Chromatolytic α-MN (ns)
  Pyknotic α-MN: Pyknotic α-MN (ns)
  Total γ-MN: Total γ-MN (ns)
[1]; SG-fed vs control, time-point 2, 52 wk, table cell prints no unit
  Total α-MN: Total α-MN: -47*
[1]; [6]
  Chromatolytic α-MN: (control group & SG-group independently over time) (ns)
  Pyknotic α-MN: (control group and SG-group independently over time) (ns)
  Total γ-MN: (control group and SG-group independently over time) (ns)
[2]
  Anti-IBA-1 immunoreactive cells: Anti-IBA-1 immunoreactive cells (SG-fed group over time) (ns)
[3]; 35 weeks
  fewer cholinergic neurons: 18%
[3]; 52 weeks
  fewer cholinergic neurons: 32%
[3]; time-point 1, 35 wk
  Cholinergic neurons: Cholinergic neurons (-18%)
[3]; time-point 2, 52 wk
  Cholinergic neurons: Cholinergic neurons (-32%)
